PMC12779026, “α-Glycosidase activity of novel coumarin–triazole–coumarin dyads” (Turkish Journal of Chemistry, 2025)
“Also recorded” adds a separate entry of the source.

Columns and labels:
α-glycosidase [1] = assay: α-Glycosidase inhibitory assay (spectrophotometric, 4-pNPG substrate, 405 nm); type: biochemical; settings: 0.5 U/mL α-glycosidase, 5 mM 4-pNPG, phosphate buffer pH 6.9, compounds 5–250 μM
Method: The α-glycosidase inhibitory effects of the compounds were determined as described in the previous study. Acarbose (Sigma-Aldrich, A8980) was used as a reference compound in this study. The compounds were first dissolved in 25 mM DMSO and then diluted to 1 mM with phosphate buffer (0.1 M, pH: 6.9). In brief, the compounds and acarbose in phosphate buffer (0.1 M, pH: 6.9) were added to a 96-well plate at 5–250 μM. Then, 100 μL, 0.5 U/mL α-glycosidase (Sigma-Aldrich, G5003) was added to the wells. After 10 min, 50 μL of 5 mM p-nitrophenyl-α-D-glucopyranoside (4-pNPG) (Sigma-Aldrich, 487506) was added as a substrate to each well. After incubation for 10 min, spectrophotometric measurement was performed at 405 nm. The percentage inhibition rate of the compounds was calculated using the following formula: […]
In this formula, A0 and A1 represent the absorbance of the mixture in the absence and presence of the compound, respectively. In addition, IC50 values, which indicate the […] required to inhibit half of the enzyme activity, were calculated.

α-glycosidase [2] = assay: Kinetic analysis of α-glycosidase inhibition (Lineweaver–Burk and Dixon plots); type: biochemical
Method: To determine this, the final concentration of α-glycosidase was fixed at 0.5 U/mL. Then, different concentrations of 4-pNPG (2.5–20 mM) and varying concentrations of 4e (20 μM, 40 μM, and 100 μM) showing inhibitory potential were added to the wells. Following incubation, the absorbance values at 405 nm in the presence and absence of the compound were measured in the microplate reader. Lineweaver–Burk and Dixon plots were used to determine the inhibitor type and the inhibitory constant (Ki) of 4e. In the Lineweaver–Burk plot, the y-axis represents 1/V, the inverse of the reaction rate, while the x-axis represents 1/[S], the inverse of the substrate concentration. According to this plot, the points intersecting the y-axis give the value 1/Vmax. From here, the Vmax value, which represents the maximum reaction rate, can be determined. Km, a value indicating the enzyme’s interest in the substrate, can be determined from the points where the line intersects the x-axis. The type of inhibition is then determined by analyzing the changes in Vmax and Km. The Dixon graph is used to calculate the Ki value, which indicates the inhibitory potential of 4e.

| Structure (SMILES) | IC50 (α-glycosidase [1]) | Ki (α-glycosidase [2]; Dixon plot) | Type (of inhibition) (α-glycosidase [2]; Lineweaver–Burk plot, 4-pNPG 2.5–20 mM, 4e 20, 40, 100 μM) |
| --- | --- | --- | --- |
| Cc1c(O)ccc2c(Cn3cc(COc4ccc5cc(-c6ccccc6)c(=O)oc5c4)nn3)cc(=O)oc12 [4a, 7-Hydroxy-8-methyl-4-((4-(((2-oxo-3-phenyl-2H-chromen-7-yl)oxy)methyl)-1H-1,2,3-triazol-1-yl)methyl)-2H-chromen-2-one] | 95 ± 3.55 µM | – | – |
| COc1ccc(-c2cc3ccc(OCc4cn(Cc5cc(=O)oc6c(C)c(O)ccc56)nn4)cc3oc2=O)cc1 [4c, 7-Hydroxy-4-((4-(((3-(4-methoxyphenyl)-2-oxo-2H-chromen-7-yl)oxy)methyl)-1H-1,2,3-triazol-1-yl)methyl)-8-methyl-2H-chromen-2-one] | 109 ± 2.4 µM | – | – |
| C[C@H]1O[C@H](O[C@H]2[C@H](O)[C@@H](O)[C@@H](O[C@H]3[C@H](O)[C@@H](O)C(O)O[C@@H]3CO)O[C@@H]2CO)[C@H](O)[C@@H](O)[C@@H]1N[C@H]1C=C(CO)[C@@H](O)[C@H](O)[C@H]1O (some centres unmarked) [Acarbose, reference compound] | 64.5 ± 2.53 µM | – | – |

Second part, led by results:

| IC50 (α-glycosidase [1]) | Ki (α-glycosidase [2]; Dixon plot) | Structure (SMILES) | Type (of inhibition) (α-glycosidase [2]; Lineweaver–Burk plot, 4-pNPG 2.5–20 mM, 4e 20, 40, 100 μM) |
| --- | --- | --- | --- |
| 39 ± 0.77 µM | 19.95 ± 0.15 µM | Cc1c(O)ccc2c(Cn3cc(COc4ccc5cc(-c6ccc([N+](=O)[O-])cc6)c(=O)oc5c4)nn3)cc(=O)oc12 [4e, 7-Hydroxy-8-methyl-4-((4-(((3-(4-nitrophenyl)-2-oxo-2H-chromen-7-yl)oxy)methyl)-1H-1,2,3-triazol-1-yl)methyl)-2H-chromen-2-one] | mixed type; also recorded: mixed inhibitor |
| 93.5 ± 1.7 µM | – | Cc1c(O)ccc2c(Cn3cc(COc4ccc5cc(-c6ccc(F)cc6)c(=O)oc5c4)nn3)cc(=O)oc12 [4d, 4-((4-(((3-(4-Fluorophenyl)-2-oxo-2H-chromen-7-yl)oxy)methyl)-1H-1,2,3-triazol-1-yl)methyl)-7-hydroxy-8-methyl-2H-chromen-2-one] | – |
| 123 ± 4.2 µM | – | Cc1ccc(-c2cc3ccc(OCc4cn(Cc5cc(=O)oc6c(C)c(O)ccc56)nn4)cc3oc2=O)cc1 [4b, 7-Hydroxy-8-methyl-4-((4-(((2-oxo-3-(p-tolyl)-2H-chromen-7-yl)oxy)methyl)-1H-1,2,3-triazol-1-yl)methyl)-2H-chromen-2-one] | – |
